In ChEMBL document CHEMBL4507328, “Data for DCP probe BAY-390” (2021):
Calls of active or inactive are those of the source. The calls are words filed in the database; no cut-off is given here.

Experiments:
[1] = target: T1, 5-hydroxytryptamine receptor 2A (Homo sapiens, UniProt P28223); experiment: GPCRScan assay: inhibition of 5-HT2A; parameters: radioligand conc. used [nm] 1.2 – 2.4, parental cells HEKT
Homo sapiens = organism: Homo sapiens; experiment: Inhibition of Nicotinic Acetylcholine at compound concentration of 10.0 uM in the Eurofins-Panlabs radioligand binding assay (Eurofins_assay_258590); assay type: protein-complex assay; details: Compound concentration 10.0 uM
Progesterone receptor = Progesterone receptor (Homo sapiens, UniProt P06401); experiment: Inhibition of Progesterone PR-B at compound concentration of 10.0 uM in the Eurofins-Panlabs radioligand binding assay (Eurofins_assay_299005); parameters: ligand concentration 0.5 nM, non-specific ligand with concentration 1 uM R5020, incubation time 20 h, incubation temperature 4 C
[2] = target: ANK_REP_REGION domain-containing protein (Cavia porcellus, UniProt H0VJD1); experiment: FLIPR Ca2+ assay (guinea pig TRPA1)
[3] = target: Short transient receptor potential channel 3 (Homo sapiens, UniProt Q13507); experiment: TRP selectivity screen (TRPC3)
[4] = target: D(1B) dopamine receptor (Homo sapiens) (UniProt P21918); details: Compound concentration 10.0 uM
[5] = target: Sodium-dependent dopamine transporter (Homo sapiens, UniProt Q01959); details: Compound concentration 10.0 uM
[6] = target: Histamine H4 receptor (Homo sapiens) (UniProt Q9H3N8); details: Compound concentration 10.0 uM
[7] = target: Adenosine receptor A3 (Homo sapiens) (UniProt P0DMS8); details: Compound concentration 10.0 uM
[8] = target: Alpha-2A adrenergic receptor (Homo sapiens) (UniProt P08913); details: Compound concentration 10.0 uM
[9] = target: Beta-1 adrenergic receptor (Homo sapiens) (UniProt P08588); details: Compound concentration 10.0 uM
[10] = target: Beta-2 adrenergic receptor (Homo sapiens) (UniProt P07550); details: Compound concentration 10.0 uM
[11] = target: D(2) dopamine receptor (Homo sapiens) (UniProt P14416); details: Compound concentration 10.0 uM
[12] = target: Endothelin-1 receptor (Homo sapiens) (UniProt P25101); details: Compound concentration 10.0 uM
[13] = target: Endothelin receptor type B (Homo sapiens) (UniProt P24530); details: Compound concentration 10.0 uM
[14] = target: Estrogen receptor (Homo sapiens) (UniProt P03372); details: Compound concentration 10.0 uM
[15] = target: Histamine H1 receptor (Homo sapiens) (UniProt P35367); details: Compound concentration 10.0 uM
[16] = target: Histamine H3 receptor (Homo sapiens) (UniProt Q9Y5N1); details: Compound concentration 10.0 uM
[17] = target: T2, Muscarinic acetylcholine receptor M1 (Homo sapiens) (UniProt P11229); details: Compound concentration 10.0 uM
T2 sequence (whole entry): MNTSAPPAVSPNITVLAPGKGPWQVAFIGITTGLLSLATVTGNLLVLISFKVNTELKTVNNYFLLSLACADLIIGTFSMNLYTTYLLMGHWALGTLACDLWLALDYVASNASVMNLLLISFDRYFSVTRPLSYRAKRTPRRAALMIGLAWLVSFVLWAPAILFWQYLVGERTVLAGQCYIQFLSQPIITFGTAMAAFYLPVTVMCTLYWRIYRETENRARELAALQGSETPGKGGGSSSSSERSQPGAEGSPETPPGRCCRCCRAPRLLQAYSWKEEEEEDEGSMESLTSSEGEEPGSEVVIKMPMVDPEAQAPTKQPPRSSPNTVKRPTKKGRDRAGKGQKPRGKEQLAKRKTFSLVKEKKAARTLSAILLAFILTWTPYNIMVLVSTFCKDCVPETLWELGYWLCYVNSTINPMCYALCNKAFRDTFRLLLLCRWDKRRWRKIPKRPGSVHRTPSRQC

[18] = target: Muscarinic acetylcholine receptor M3 (Homo sapiens) (UniProt P20309); details: Compound concentration 10.0 uM
[19] = target: Delta-type opioid receptor (Homo sapiens) (UniProt P41143); details: Compound concentration 10.0 uM
[20] = target: Sodium-dependent noradrenaline transporter (Homo sapiens) (UniProt P23975); details: Compound concentration 10.0 uM
[21] = target: Sodium-dependent serotonin transporter (Homo sapiens) (UniProt P31645); details: Compound concentration 10.0 uM
[22] = target: Beta-3 adrenergic receptor (Homo sapiens) (UniProt P13945); details: Compound concentration 10.0 uM
[23] = target: D(2) dopamine receptor (Homo sapiens) (UniProt P14416); details: Compound concentration 10.0 uM; remark: listed apart in the source
[24] = target: GABA-A receptor; anion channel (Rattus norvegicus) (UniProt O09028+P15431+P18506+P18508+P19969+P20236+P23574+P23576+P28471+P28473+P30191+P62813+P63079+P63138+Q91ZM7+Q9ES14); details: Compound concentration 10.0 uM
[25] = target: Glutamate receptor 2 (Homo sapiens) (UniProt P42262); details: Rattus norvegicus; Compound concentration 10.0 uM
[26] = target: T1, 5-hydroxytryptamine receptor 2A; details: Compound concentration 10.0 uM
[27] = target: Type-1 angiotensin II receptor (Homo sapiens) (UniProt P30556); details: Compound concentration 10.0 uM
[28] = target: Cannabinoid receptor 2 (Homo sapiens) (UniProt P34972); details: Compound concentration 10.0 uM
[29] = target: Androgen receptor (Homo sapiens) (UniProt P10275); details: Compound concentration 10.0 uM
[30] = target: 5-hydroxytryptamine receptor 1D (Homo sapiens) (UniProt P28221); details: Compound concentration 10.0 uM
[31] = target: D(2) dopamine receptor (Homo sapiens) (UniProt P14416); details: Compound concentration 10.0 uM; remark: listed apart in the source

Sequence of D(2) dopamine receptor (Homo sapiens) (P14416 whole entry): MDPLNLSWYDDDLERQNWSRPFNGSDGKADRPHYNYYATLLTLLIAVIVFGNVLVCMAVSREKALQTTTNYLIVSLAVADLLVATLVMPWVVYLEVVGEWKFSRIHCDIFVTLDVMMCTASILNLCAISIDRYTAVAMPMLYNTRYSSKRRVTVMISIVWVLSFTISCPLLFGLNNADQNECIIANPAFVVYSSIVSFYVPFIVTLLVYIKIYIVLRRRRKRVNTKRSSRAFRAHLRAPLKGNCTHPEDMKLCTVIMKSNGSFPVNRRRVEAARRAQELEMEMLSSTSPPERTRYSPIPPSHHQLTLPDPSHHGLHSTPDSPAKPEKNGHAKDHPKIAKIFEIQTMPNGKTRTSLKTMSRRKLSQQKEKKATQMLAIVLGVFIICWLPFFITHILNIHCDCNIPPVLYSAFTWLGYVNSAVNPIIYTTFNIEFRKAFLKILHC
Sequence of Progesterone receptor (P06401 whole entry, the tested form may be a part): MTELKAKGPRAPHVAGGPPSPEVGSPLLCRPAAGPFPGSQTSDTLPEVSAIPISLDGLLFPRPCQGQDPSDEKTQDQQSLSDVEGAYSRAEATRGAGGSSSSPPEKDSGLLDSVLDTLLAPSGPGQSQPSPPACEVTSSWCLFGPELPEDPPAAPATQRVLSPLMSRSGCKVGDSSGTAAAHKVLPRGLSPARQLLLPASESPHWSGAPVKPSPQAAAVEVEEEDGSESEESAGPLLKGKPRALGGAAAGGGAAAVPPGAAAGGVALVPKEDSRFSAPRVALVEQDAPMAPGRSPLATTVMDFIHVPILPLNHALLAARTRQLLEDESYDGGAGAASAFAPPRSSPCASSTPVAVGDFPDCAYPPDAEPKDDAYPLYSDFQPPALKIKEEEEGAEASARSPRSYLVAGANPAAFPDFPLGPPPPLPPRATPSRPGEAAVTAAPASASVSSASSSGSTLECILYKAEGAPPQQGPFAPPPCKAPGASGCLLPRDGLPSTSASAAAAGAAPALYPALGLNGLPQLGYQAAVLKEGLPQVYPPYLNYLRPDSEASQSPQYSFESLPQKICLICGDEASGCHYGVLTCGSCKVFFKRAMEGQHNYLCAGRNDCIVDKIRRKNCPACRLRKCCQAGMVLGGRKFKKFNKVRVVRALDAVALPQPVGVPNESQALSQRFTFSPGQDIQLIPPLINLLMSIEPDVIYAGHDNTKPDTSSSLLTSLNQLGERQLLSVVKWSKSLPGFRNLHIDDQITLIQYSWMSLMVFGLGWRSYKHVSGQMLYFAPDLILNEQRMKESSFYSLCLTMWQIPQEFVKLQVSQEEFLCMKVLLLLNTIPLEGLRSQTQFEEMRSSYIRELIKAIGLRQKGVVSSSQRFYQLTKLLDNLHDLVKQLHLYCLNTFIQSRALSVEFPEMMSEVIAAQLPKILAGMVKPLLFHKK
T1 sequence (P28223 whole entry): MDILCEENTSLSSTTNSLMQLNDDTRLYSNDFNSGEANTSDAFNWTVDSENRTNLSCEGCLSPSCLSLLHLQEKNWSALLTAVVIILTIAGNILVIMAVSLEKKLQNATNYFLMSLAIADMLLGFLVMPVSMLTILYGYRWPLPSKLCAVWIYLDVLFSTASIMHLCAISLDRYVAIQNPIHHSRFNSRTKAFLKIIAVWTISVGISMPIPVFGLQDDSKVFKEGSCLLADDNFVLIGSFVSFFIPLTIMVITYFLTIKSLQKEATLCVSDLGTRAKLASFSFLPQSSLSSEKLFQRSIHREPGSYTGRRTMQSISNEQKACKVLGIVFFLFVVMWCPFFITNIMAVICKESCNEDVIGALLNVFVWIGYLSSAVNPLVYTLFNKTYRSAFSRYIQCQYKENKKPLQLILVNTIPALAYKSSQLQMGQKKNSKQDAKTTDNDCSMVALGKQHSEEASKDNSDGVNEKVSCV
Sequence of Muscarinic acetylcholine receptor M3 (Homo sapiens) (P20309 whole entry, looked up): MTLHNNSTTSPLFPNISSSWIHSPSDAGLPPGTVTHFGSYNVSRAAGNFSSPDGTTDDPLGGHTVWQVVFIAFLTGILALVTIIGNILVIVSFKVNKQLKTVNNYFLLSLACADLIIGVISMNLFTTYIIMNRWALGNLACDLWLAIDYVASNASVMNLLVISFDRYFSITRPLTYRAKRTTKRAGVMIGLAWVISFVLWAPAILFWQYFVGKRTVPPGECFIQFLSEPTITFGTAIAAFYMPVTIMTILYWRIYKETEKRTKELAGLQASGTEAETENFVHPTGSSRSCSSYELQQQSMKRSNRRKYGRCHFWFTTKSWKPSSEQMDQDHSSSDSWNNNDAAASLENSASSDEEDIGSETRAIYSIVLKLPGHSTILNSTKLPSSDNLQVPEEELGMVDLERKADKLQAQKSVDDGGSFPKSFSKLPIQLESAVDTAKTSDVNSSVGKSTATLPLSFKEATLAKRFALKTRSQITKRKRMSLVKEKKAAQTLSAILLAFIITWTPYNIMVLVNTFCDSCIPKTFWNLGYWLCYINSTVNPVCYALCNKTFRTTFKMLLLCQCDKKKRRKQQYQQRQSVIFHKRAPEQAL
Sequence of Histamine H3 receptor (Homo sapiens) (Q9Y5N1 whole entry): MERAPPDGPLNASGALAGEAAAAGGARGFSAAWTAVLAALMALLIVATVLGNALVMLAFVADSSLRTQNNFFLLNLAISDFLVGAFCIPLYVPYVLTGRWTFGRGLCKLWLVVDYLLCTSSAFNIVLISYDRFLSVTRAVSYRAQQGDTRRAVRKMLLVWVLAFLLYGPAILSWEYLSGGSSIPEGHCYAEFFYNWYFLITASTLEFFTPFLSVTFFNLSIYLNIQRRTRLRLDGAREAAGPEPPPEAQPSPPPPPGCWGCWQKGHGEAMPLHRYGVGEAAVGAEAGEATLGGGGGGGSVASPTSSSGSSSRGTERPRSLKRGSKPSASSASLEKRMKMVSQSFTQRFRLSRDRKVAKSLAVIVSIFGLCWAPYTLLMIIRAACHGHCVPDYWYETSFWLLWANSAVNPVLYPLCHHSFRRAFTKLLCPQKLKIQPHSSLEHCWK
Sequence of Alpha-2A adrenergic receptor (Homo sapiens) (P08913 whole entry): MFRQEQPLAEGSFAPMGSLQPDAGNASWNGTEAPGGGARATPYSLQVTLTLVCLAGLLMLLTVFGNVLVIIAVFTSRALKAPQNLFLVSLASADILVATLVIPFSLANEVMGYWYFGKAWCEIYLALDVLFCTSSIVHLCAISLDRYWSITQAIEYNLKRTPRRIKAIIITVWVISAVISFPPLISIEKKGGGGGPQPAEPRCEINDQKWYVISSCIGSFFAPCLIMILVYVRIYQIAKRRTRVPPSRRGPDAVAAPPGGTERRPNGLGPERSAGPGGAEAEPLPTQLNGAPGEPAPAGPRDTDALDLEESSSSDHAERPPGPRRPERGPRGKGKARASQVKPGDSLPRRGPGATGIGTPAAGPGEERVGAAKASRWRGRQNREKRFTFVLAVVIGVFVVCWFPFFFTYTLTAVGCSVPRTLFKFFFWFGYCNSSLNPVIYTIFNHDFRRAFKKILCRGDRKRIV
Sequence of Beta-2 adrenergic receptor (Homo sapiens) (P07550 whole entry, looked up): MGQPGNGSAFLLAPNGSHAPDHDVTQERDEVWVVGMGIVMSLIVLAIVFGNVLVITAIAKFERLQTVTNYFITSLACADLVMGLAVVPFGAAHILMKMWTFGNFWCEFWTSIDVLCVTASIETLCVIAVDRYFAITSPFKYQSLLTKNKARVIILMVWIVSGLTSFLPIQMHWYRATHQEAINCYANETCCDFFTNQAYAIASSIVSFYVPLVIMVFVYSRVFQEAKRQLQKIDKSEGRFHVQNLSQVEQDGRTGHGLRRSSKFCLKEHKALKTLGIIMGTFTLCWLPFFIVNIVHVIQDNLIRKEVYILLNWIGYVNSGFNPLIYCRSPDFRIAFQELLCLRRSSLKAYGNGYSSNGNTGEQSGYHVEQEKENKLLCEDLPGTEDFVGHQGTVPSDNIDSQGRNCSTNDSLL
Sequence of D(1B) dopamine receptor (Homo sapiens) (P21918 whole entry): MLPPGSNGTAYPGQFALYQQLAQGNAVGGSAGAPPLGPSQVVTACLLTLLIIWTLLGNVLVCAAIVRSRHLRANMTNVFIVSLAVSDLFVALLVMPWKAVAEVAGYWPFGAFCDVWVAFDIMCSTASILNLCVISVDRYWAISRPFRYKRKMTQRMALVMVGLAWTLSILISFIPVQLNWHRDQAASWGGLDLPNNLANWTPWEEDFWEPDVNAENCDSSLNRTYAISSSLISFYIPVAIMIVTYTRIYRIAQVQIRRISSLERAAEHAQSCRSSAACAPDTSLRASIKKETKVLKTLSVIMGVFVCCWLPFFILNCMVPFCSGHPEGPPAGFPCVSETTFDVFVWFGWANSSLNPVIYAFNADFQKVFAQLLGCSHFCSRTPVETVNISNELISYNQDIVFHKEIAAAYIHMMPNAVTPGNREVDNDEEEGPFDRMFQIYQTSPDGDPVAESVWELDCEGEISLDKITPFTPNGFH
Sequence of Type-1 angiotensin II receptor (Homo sapiens) (P30556 whole entry): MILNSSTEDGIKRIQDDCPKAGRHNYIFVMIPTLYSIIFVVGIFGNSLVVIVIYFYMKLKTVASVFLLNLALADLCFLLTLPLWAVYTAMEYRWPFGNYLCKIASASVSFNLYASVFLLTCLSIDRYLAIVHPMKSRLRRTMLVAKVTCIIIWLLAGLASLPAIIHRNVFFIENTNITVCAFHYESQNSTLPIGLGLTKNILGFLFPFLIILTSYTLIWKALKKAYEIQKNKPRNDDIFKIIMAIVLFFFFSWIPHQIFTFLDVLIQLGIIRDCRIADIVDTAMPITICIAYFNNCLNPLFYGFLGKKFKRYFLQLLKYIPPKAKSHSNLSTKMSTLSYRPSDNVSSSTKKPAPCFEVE
Sequence of 5-hydroxytryptamine receptor 1D (Homo sapiens) (P28221 whole entry): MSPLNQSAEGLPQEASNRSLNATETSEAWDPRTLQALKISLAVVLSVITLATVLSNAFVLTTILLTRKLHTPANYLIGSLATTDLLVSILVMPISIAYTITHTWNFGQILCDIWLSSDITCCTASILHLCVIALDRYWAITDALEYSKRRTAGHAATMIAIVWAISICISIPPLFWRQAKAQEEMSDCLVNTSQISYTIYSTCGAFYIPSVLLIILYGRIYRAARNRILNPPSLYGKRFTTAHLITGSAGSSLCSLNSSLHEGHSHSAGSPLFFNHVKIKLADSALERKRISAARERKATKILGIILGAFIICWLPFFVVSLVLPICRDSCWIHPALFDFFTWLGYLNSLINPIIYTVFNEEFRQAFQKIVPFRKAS

O[C@]1(C(F)(F)F)CCCC[C@H]1Nc1ccc(F)cc1 [BAY-390]
Ki [1]: 2.58 µM | inhibition (Homo sapiens): -7% | IC50 (Progesterone receptor): 5 µM | Ki (Progesterone receptor): 4 µM | IC50 [2]: 0.068 µM (active) | IC50 [3]: > 25 µM (not active) | inhibition [4]: 30.2% | inhibition [5]: 56.5% | inhibition [6]: 15.6% | inhibition [7]: 4% | inhibition [8]: 7% | inhibition [9]: 3% | inhibition [10]: 11% | inhibition [11]: 13% | inhibition [12]: 7% | inhibition [13]: -4% | inhibition [14]: 75% | inhibition [15]: 6% | inhibition [16]: -4% | inhibition [17]: -1% | inhibition [18]: 21% | inhibition [19]: -6% | inhibition [20]: 16% | inhibition [21]: 3% | inhibition [22]: 1% | inhibition [23]: 12% | inhibition [24]: -8% | inhibition [25]: 8% | inhibition [26]: -2% | inhibition [27]: 4% | inhibition [28]: 21% | inhibition [29]: 47%

COc1cc(N[C@@H]2CCCC[C@]2(O)C(F)(F)F)ccc1F [BAY-9897]
inhibition [30]: 2.77% | inhibition [31]: -4.34%
